{
  "source": "patent US20040224922A1",
  "about": "“Use of charged dextran as a mucoactive agent and methods and pharmaceutical compositions relating thereto” (priority 1999, published 2004)",
  "key": {"[1]": {"experiment": "Viscoelasticity of cystic fibrosis sputum in vitro by magnetic rheometry", "set-up": "species or system human", "details": "final concentration 8 mg/ml in CF sputum", "from_the_text": "FIG. 5 is a bar graph illustrating the effect of heparin and dextran sulfate on […] of sputum from 7 cystic fibrosis human patients as determined by magnetic rheometry, expressed as the average log G* over 1-100 rad/s after treatment with saline, heparin (MW 6000), Dextran Sulfate (MW 5000, about 17% sulphur by weight), heparin (dimer, highly (fully) sulfated, H-9267: C12H13NO19S3Na4), or heparin (dimer, low sulfate, partially de-sulfated H-9142, C12H18NO13SNa) to a final concentration of about 8 mg/ml (or […]) of sputum. […] The effect was similar to heparin, M.W. 6000.\nMucus Viscoelasticity Measurements: The magnetic microrheometer technique was used to measure the viscosity and elasticity of the dog mucus samples [21]. A […] steel ball was positioned in a 5-10 mL sample of mucus, and the motion of this sphere under the influence of an oscillating electromagnetic field gradient was used to determine the rheological properties of the mucus. The image of the steel ball was projected via a microscope onto a pair of photocells, whose output was amplified and transmitted to an oscilloscope. […]\n(§1) The parameters of mucus viscoelasticity determined were the rigidity index or mechanical impedance, i.e. G*, reported here on a log scale, expressing the average vector sum of “viscosity+elasticity” over the frequency range 1-100 rad/s, and tan d, the mechanical loss tangent, expressing the ratio of viscous to elastic deformation. These viscoelastic parameters can be used to predict mucus clearability by ciliary and cough mechanisms, based on the measured Theological properties and observations of clearance from model studies.\n(a) In vitro Sputum from 7 cystic fibrosis human patients were measured with regards to viscoelasticity after treatment with saline, heparin (MW˜6000), dextran sulfate (MW˜5000), heparin (dimer, highly sulfated), or heparin (dimer, de-sulfated) in accordance with the protocols for measuring viscoelasticity described in Example 1. […]"}, "healthy mongrel dogs [2]": {"tested_on": "healthy mongrel dogs", "experiment": "Tracheal transepithelial potential difference (PD) by agar bridge technique after aerosol", "type": "in vivo, dog", "experimental": "(§2) Seven healthy mongrel dogs (6 male/1 female), weight 21-28 kg, with no respiratory tract bacterial infections, were studied. The dogs were anesthetized with sodium pentobarbital (ca 30 mg/kg i.v., supplemented as required) and intubated with a cuffed endotracheal tube. They were administered Ringer aerosol first, followed by 6.5 mg/ml dextran sulfate, 20 mg/ml dextran sulfate, and 65 mg/ml dextran sulfate by aerosol. Each aerosolization was of 30 minutes duration, with a rest period of 30 minutes before the beginning of the next aerosol delivery. The aerosols were generated and delivered by a Pari LC STAR nebulizer using an air flow rate of 8 l/min, which results in an output of 0.58 ml/min and particles of […] mass median diameter. The nebulizer was loaded in each case with 10 ml of solution. The amount of solution remaining in the nebulizer after 30 minutes was recorded. A T-tube connection was provided to the endotracheal tube during aerosol delivery to ensure a minimal deadspace for ventilation and adequate delivery of the aerosol. The dogs breathed spontaneously throughout the experiment.\n(§3) Tracheal mucus velocity (TMV) and tracheal potential difference (PD) was measured, and mucus samples were collected for each concentration of delivered drug. TMV was measured twice for each dose, i.e. during aerosolization, between 15 and 25 minutes from the start of aerosol delivery (designated as period-1), and 10-20 minutes after completion of aerosolization (designated as period-2). PD was measured during the period 5 to 10 minutes following each aerosol. […]\nTransepithelial Potential Difference (PD, -mV); PD was measured by using two flexible microelectrodes (agar bridges of PE 160 size) saturated with KCl connected to calomel half cells, one for reference and the other for testing. […] The PD value was recorded when a steady state, value was achieved and remained stable for a least 30 seconds. […]"}, "healthy mongrel dogs [3]": {"tested_on": "healthy mongrel dogs", "experiment": "Tracheal mucociliary velocity (TMV) by charcoal particle displacement", "type": "in vivo, dog", "experimental": "as §2, with “The dogs breathed spontaneously throughout the experiment.” left out\nas §3\nTracheal Mucociliary Velocity (TMV, mm/min): TMV was determined by observing the rate of charcoal marker particle transport in the lower trachea. Under bronchoscopic visualization, ca, 5 mL of a charcoal suspension (Charac-50 diluted in Ringer's 1:10) was deposited on a lateral surface of the lower trachea 1-2 cm above the carina, and the rate of cephalad progression of the leading edge of the charcoal spot was monitored over the course of 10 minutes by gradually withdrawing the bronchoscope and recording its position relative to the endotracheal tube. […]"}, "healthy mongrel dogs [4]": {"tested_on": "healthy mongrel dogs", "experiment": "Tracheal mucus viscoelasticity by magnetic microrheometry after aerosol", "type": "in vivo, dog", "experimental": "as §2\n(§4) Tracheal mucus velocity (TMV) and tracheal potential difference (PD) was measured, and mucus samples were collected for each concentration of delivered drug. TMV was measured twice for each dose, i.e. during aerosolization, between 15 and 25 minutes from the start of aerosol delivery (designated as period-1), and 10-20 minutes after completion of aerosolization (designated as period-2). PD was measured during the period 5 to 10 minutes following each aerosol. Mucus was collected twice for each aerosol, once immediately after 30 minutes of aerosolization and a second time after an additional 30 minutes of spontaneous breathing.\nAll samples of dog mucus collected from endotracheal tubes were placed in 1.5 ml Eppendorf tubes for measurement of viscoelasticity by magnetic rheometry. After initial rheological testing, the mucus samples were preserved at −80° C. for subsequent analysis of collection rate and solids content.\nMucus Viscoelasticity Measurements: The magnetic microrheometer technique was used to measure the viscosity and elasticity of the dog mucus samples [21]. A […] steel ball was positioned in a 5-10 mL sample of mucus, and the motion of this sphere under the influence of an oscillating electromagnetic field gradient was used to determine the rheological properties of the mucus. The image of the steel ball was projected via a microscope onto a pair of photocells, whose output was amplified and transmitted to an oscilloscope. By plotting the displacement of the ball against the magnetic driving force, the viscoelastic properties of the mucus were ascertained.\nas §1\n(b) In vivo Seven healthy dogs were anesthetized, intubated and treated via aerosol with heparin sodium (MW 5000-6000) or dextran sulfate (MW 5000) and mucus viscoelasticity, transepithelial potential difference (PD) and tracheal mucus velocity (TMV) were determined, in accordance with the protocols described in Example 1 above. Non-lactated Ringer's solution was used as control. […] These changes were accompanied by a nonsignificant, upward trend in TMV, to approximately 130% of control. However, changes might be even more pronounced in animals with initially rigid mucus."}, "healthy mongrel dogs [5]": {"tested_on": "healthy mongrel dogs", "experiment": "Mucus collection weight (MCW) by endotracheal tube method", "type": "in vivo, dog", "experimental": "as §2, §4\nMucus Collection Weight (MCW, mg/30 min): Tracheal mucus was collected by the endotracheal tube (ETT) method, which involves the removal of mucus adherent to the ETT after extubation. Mucus collections were performed twice after each aerosol, once by immediately removing the ETT following aerosol inhalation, and the second 30 minute after inhalation, after re-installing a clean ETT The mucus samples, which had been frozen, were thawed and weighed by microbalance, to determine MCW, an index of flux, and indirectly of the rate of secretion."}, "healthy mongrel dogs [6]": {"tested_on": "healthy mongrel dogs", "experiment": "Solids content (% SC) of collected airway secretion", "type": "in vivo, dog", "experimental": "as §2, §3\nSolids content (wet:dry weight ratio): A drying apparatus and microbalance were used to calculate the dry weight and wet weight of the collected secretion, from which the percent solids content (% SC) was calculated. […] These dried samples were then reweighed, and % SC was calculated from ratio of dry to wet weight."}, "healthy mongrel dogs [7]": {"tested_on": "healthy mongrel dogs", "experiment": "Tolerability / toxic effects of aerosol inhalation in dogs", "type": "in vivo, dog", "procedure": "Seven healthy mongrel dogs (6 male/1 female), weight 21-28 kg, with no respiratory tract bacterial infections, were studied. The dogs were anesthetized with sodium pentobarbital (ca 30 mg/kg i.v., supplemented as required) and intubated with a cuffed endotracheal tube. They were administered Ringer aerosol first, followed by 6.5 mg/ml dextran sulfate, 20 mg/ml dextran sulfate, and 65 mg/ml dextran sulfate by aerosol. Each aerosolization was of 30 minutes duration, with a rest period of 30 minutes before the beginning of the next aerosol delivery. The aerosols were generated and delivered by a Pari LC STAR nebulizer using an air flow rate of 8 l/min, which results in an output of 0.58 ml/min and particles of 2.0 mm mass median diameter. The nebulizer was loaded in each case with 10 ml of solution. The amount of solution remaining in the nebulizer after 30 minutes was recorded. A T-tube connection was provided to the endotracheal tube during aerosol delivery to ensure a minimal deadspace for ventilation and adequate delivery of the aerosol. The dogs breathed spontaneously throughout the experiment."}, "human subjects": {"tested_on": "human subjects", "details": "oral, human subjects [34]; cited from earlier work"}},
  "data": [
    {"compound": "N[C@H]1C(O)O[C@H](CO)[C@@H](O[C@@H]2OC(C(=O)O)=C[C@H](O)[C@H]2OS(=O)(=O)O)[C@@H]1O", "note": "(stereo partly shown) [de-sulfated heparin dimer]", "values": [
      {"measurement": "viscoelasticity (average log G* over 1-100 rad/s) compared to saline control", "setting": "[1]", "value": "no significant improvement"}
    ]},
    {"compound": "O=C(O)C1=C[C@H](O)[C@@H](OS(=O)(=O)O)[C@H](O[C@H]2[C@H](O)[C@@H](NS(=O)(=O)O)C(O)O[C@@H]2COS(=O)(=O)O)O1", "note": "(stereo partly shown) [highly sulfated heparin dimer]", "values": [
      {"measurement": "viscoelasticity (average log G* over 1-100 rad/s) compared to saline control", "setting": "[1]", "value": "significant decrease in viscoelasticity"}
    ]},
    {"compound": "Dextran sulfate, sodium salt [DexSO4]", "values": [
      {"measurement": "mean increase in PD (maximal change)", "setting": "healthy mongrel dogs [2]; 65 mg/ml aerosol, vs Ringer control", "value": 9.86, "unit": "mV"},
      {"measurement": "PD compared with Ringer control", "setting": "healthy mongrel dogs [2]; after 30-minute aerosol at 6.5, 20 and 65 mg/ml, 7 dogs", "value": "increased significantly"},
      {"measurement": "TMV, % of baseline", "setting": "healthy mongrel dogs [3]; 6.5 mg/ml aerosol (first dose), non-significant, p=0.066", "value": "128 % of baseline"},
      {"measurement": "change in mucociliary velocity (TMV)", "setting": "healthy mongrel dogs [3]; aerosol 6.5-65 mg/ml, during and after aerosolization", "value": "no significant change"},
      {"measurement": "mucus recoil parameter, tan d", "setting": "healthy mongrel dogs [4]; aerosol 6.5-65 mg/ml", "value": "no significant changes"},
      {"measurement": "average log G* compared with respective Ringer control", "setting": "healthy mongrel dogs [4]; aerosol at 6.5 and 65 mg/ml", "value": "significant decrease"},
      {"measurement": "decrease in G* expressed as a factor", "setting": "healthy mongrel dogs [4]; during 65 mg/ml aerosol", "value": 2.61},
      {"measurement": "mean decrease in average log G* (1-100 rad/s)", "setting": "healthy mongrel dogs [4]; during 65 mg/ml aerosol, vs Ringer, p=0.021", "value": 0.42, "unit": "log units"},
      {"measurement": "effective concentration range relative to neutral dextran (reduced viscoelastic modulus, predicted clearance)", "setting": "healthy mongrel dogs [4]; in vivo, healthy dog mucus", "value": "half-log lower concentration range"},
      {"measurement": "mucus collection weight (MCW, mg/30 min)", "setting": "healthy mongrel dogs [5]; 6.5 mg/ml-1 (collected immediately after aerosol), wet weight", "value": "4.35 ± 0.67", "unit": "mg"},
      {"measurement": "mucus collection weight (MCW, mg/30 min)", "setting": "healthy mongrel dogs [5]; 20 mg/ml-1, wet weight", "value": "4.47 ± 0.59", "unit": "mg"},
      {"measurement": "mucus collection weight (MCW, mg/30 min)", "setting": "healthy mongrel dogs [5]; 65 mg/ml-1, wet weight", "value": "5.64 ± 1.14", "unit": "mg"},
      {"measurement": "change in mucus collection weight with increasing concentration", "setting": "healthy mongrel dogs [5]; 6.5-65 mg/ml aerosol", "value": "no change"},
      {"measurement": "solids content (% SC) of collected fluid", "setting": "healthy mongrel dogs [6]; 65 mg/ml-1 (Ringer-1: 6.16±0.20%), p=0.042", "value": "9.27±1.02", "unit": "%"},
      {"measurement": "solids content (% SC) of collected fluid", "setting": "healthy mongrel dogs [6]; 65 mg/ml-2 (Ringer-2: 6.87±0.92%), p=0.009", "value": 10.78, "unit": "%"},
      {"measurement": "effect on mucus % solids content", "setting": "healthy mongrel dogs [6]; increasing concentrations 6.5, 20, 65 mg/ml", "value": "significant increase"},
      {"measurement": "bronchial mucosal appearance", "setting": "healthy mongrel dogs [7]; aerosol 6.5, 20, 65 mg/ml", "value": "remained normal"},
      {"measurement": "cough or other side effects during inhalation", "setting": "healthy mongrel dogs [7]; aerosol 6.5, 20, 65 mg/ml, 30 min each, all seven dogs", "value": "without significant cough or other side effects"},
      {"measurement": "toxic effects", "setting": "healthy mongrel dogs [7]; present study, aerosol in dogs", "value": "no toxic effects"}
    ]},
    {"compound": "dextran sulfate [dextran sulfate (m.w. 7000)]", "values": [
      {"measurement": "absorbability", "setting": "human subjects", "value": "poor absorbablity"},
      {"measurement": "anticoagulant effect", "setting": "human subjects", "value": "little anticoagulant effect"},
      {"measurement": "other safety concerns", "setting": "human subjects", "value": "no other apparent safety concerns"}
    ]},
    {"compound": "heparin [heparin, MW 6000]", "values": [
      {"measurement": "viscoelasticity (average log G* over 1-100 rad/s) compared to saline control", "setting": "[1]", "value": "similar"}
    ]},
    {"compound": "heparin sodium [reference compound]", "values": [
      {"measurement": "PD, % of control", "setting": "healthy mongrel dogs [2]; 6.5 mg/ml aerosol, significant decrease, Ringer control", "value": "55.1 % of control"},
      {"measurement": "TMV, % of control", "setting": "healthy mongrel dogs [3]; 6.5 mg/ml aerosol, nonsignificant upward trend", "value": "approximately 130 % of control"},
      {"measurement": "mucus viscoelasticity (G*), % of control", "setting": "healthy mongrel dogs [4]; 6.5 mg/ml aerosol, significantly decreased", "value": "36 % of control"}
    ]}
  ]
}
